Laboratory results from patent US9353188B2, “Modulators of Plexin B2 activity” (President and Fellows of Harvard College, priority 2011, dated 2016).
Like-named read-outs stand apart in the source and are kept apart here. Residues, ends and D or L forms follow the SMILES beside them.

How the values were obtained:
[1] = system: LNCaP cells; test: LNCaP cell proliferation in phenol red-free and steroid-free medium; type: cell-based, human; conditions: for LNCaP cell proliferation: steroid-free medium, DHT 10 nM, ANG 0.1 μg/ml, or a mixture of the two
Description: (A) HUVE and LNCaP cells were cultured at the density indicated, and incubated with 0.1 μg/ml ANG for 2 h. Nuclear ANG were detected by indirect immunofluorescence with 26-2F and Alex 488 labeled 2nd antibody. (B) LNCaP cells were culture in phenol red-free and charcoal/dextran-stripped (steroid-free) FBS for 2 day and stimulated with DHT (10 nM), ANG (0.1 μg/ml), or a mixture of the two for the time indicated. (C) Dose dependence. ANG was added to the cells and cultured for 4 days. Cell numbers were determined with a Coulter counter.
ANG plays a dual role in prostate cancer progression. It not only mediates tumor angiogenesis but also directly stimulates cancer cell proliferation.

[2] = target: ANG protein (Homo sapiens, UniProt P03950); test: binding of Plexin B2 peptides to ANG by ELISA and equilibrium dialysis
Sequence of ANG protein (P03950 25-147): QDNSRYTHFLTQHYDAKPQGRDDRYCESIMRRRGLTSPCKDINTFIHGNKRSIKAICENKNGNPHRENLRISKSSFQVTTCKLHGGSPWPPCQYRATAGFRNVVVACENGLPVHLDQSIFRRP

[3] = system: ANG receptor expressing LNCaP cells; test: radio receptor assay, binding of 125I-ANG to LNCaP cells; parameters: species or system human; conditions: 4° C., Scatchard analysis
Description: (A) Subconfluent LNCaP cells were incubated with ^125I-ANG at 4° C. for 30 min and bound ANG was determined by a gamma counter. (B) Scatchard plot of the results produced in experiment described in (A).
The thermodynamics of ANG binding to LNCaP cells was determined by a standard radio receptor assay. ANG was labeled with iodine-125 and incubated with ANG receptor expressing LNCaP cells at 4° C.

[4] = system: Plexin B2 transfectants of COS-7 cells; test: AKT phosphorylation in Plexin B2 transfectants of COS-7 cells (Western); type: cell-based, monkey; conditions: not in vector control, ANG 2 h
Description: Vector (A-C) and Plexin B2 (D-F) transfected COS-7 cells were incubated with 1 μg/ml ANG for 2 h. ANG was detected by immunofluorescence (A and D). Nuclei were stained by DAPI (B and E). The merged images were shown in C and F. (G) Vector and Plexin B2 transfectants were incubated with ANG at the concentration indicated for 2 h. Cells were lysed, cell lysates (60 μg protein) were subjected for SDS-PAGE and Western analysis for phospho-AKT and total AKT with respective antibodies.
The phosphorylation status of AKT in the Plexin B2 transfectants of COS-7 cells was examined.

[5] = system: Plexin B2 transfectants of COS-7 cells; test: nuclear translocation of ANG in Plexin B2-transfected COS-7 cells; type: cell-based, monkey; conditions: neomycin 10 min, then 1 μg/ml ANG for 2 h
Description: The Plexin B2 transfectants were treated with neomycin at the concentration indicated for 10 min and then incubated with 1 μg/ml ANG for 2 h. ANG was detected by immunofluorescence (top panels). Nuclei were stained by DAPI (middle panels). The merged images were shown in bottom panels.
The effect of neomycin on Plexin B2 transfectants of COS-7 cells was examined. […] Therefore, transfection of human Plexin B2 cDNA converted COS-7 cells into ANG responsive cells. In term of nuclear translocation of ANG, which is essential for the biological activity of ANG, Plexin B2 transfectants of COS-7 cells act in a similar fashion as do LNCaP cells and sparsely cultured HUVE cells, the two known ANG responsive cell lines.

[6] = system: ANG receptor expressing LNCaP cells; conditions: background statement, no data shown; cited from earlier work

C[C@]12CCC(=O)C[C@@H]1CC[C@@H]1[C@@H]2CC[C@]2(C)[C@@H](O)CC[C@@H]12 [DHT, Dihydrotestosterone, reference compound]
LNCaP cell proliferation [1]: stimulated LNCaP cell proliferation

CC[C@H](C)[C@H](NC(=O)[C@H](CCC(=O)O)NC(=O)[C@@H](NC(=O)[C@H](CC(C)C)NC(=O)[C@@H](NC(=O)[C@H](CO)NC(=O)[C@H](CC(=O)O)NC(=O)[C@H](Cc1ccc(O)cc1)NC(=O)[C@H](CCC(=O)O)NC(=O)[C@H](CO)NC(=O)[C@H](CO)NC(=O)[C@@H](NC(=O)CN)[C@@H](C)O)[C@@H](C)CC)C(C)C)C(=O)N[C@@H](CC(N)=O)C(=O)N[C@@H](CCCCN)C(=O)N[C@@H](CCCNC(=N)N)C(=O)N[C@H](C(=O)N[C@@H](CCCCN)C(=O)O)C(C)C [SEQ ID NO: 1, GTSSEYDSILVEINKRVK] (H-GTSSEYDSILVEINKRVK-OH; N-terminus and C-terminus assumed)
binding to ANG [2]: able to bind to ANG

ANG: small, secreted protein Angiogenin, a potent inducer of angiogenesis; human ANG is SEQ ID NO: 5
LNCaP cell proliferation, dose dependence ([1]; cultured for 4 days, cell numbers by Coulter counter): stimulated LNCaP cell proliferation in a dose-dependent manner
LNCaP cell proliferation [1]: stimulated LNCaP cell proliferation in the absence of androgen
Kd ([3]; read-out: apparent Kd, first ANG binding site): 0.45 nM
Kd ([3]; read-out: apparent Kd, second ANG binding site): 170 nM
AKT phosphorylation [4]: induced AKT phosphorylation

LDKVHAKMEANRNAC (listed as Homo sapiens) [SEQ ID NO: 2]
binding to ANG [2]: able to bind to ANG

RDGLRGTAVLQRGGLNL (listed as Homo sapiens) [SEQ ID NO: 3]
binding to ANG [2]: able to bind to ANG

neomycin
nuclear translocation of ANG [5]: inhibits nuclear translocation of ANG in the Plexin B2 transfectants of COS-7 cells in a dose-dependent manner

B1: RNase A: protein with 35% amino acid identity to ANG, used on Sepharose column to remove non-specific proteins (protein, UniProt P61823 27-150, looked up)
Ribonuclease pancreatic: KETAAAKFERQHMDSSTSAASSSNYCNQMMKSRNLTKDRCKPVNTFVHESLADVQAVCSQKNVACKNGQTNCYQSYSTMSITDCRETGSSKYPNCAYKTTQANKHIIVACEGNPYVPVHFDASV
binding to the LNCaP cell surface [6]: does not bind to the LNCaP cell surface
